From patent US4650791A, “Certain 3-alkoxy-2-cyclic-imido-propyl-phosphate-ethyl-cyclic ammonium hydroxide inner salts which inhibit activities of platelet activating factor” (Takedo Chemical Industries, Ltd., priority 1984, dated 1987)

Assays:
[1] = tested on: PAF-induced platelet aggregation (washed PRP); test: Activity to inhibit PAF in platelet aggregation (washed PRP); format: cell-based; details: Oryctolagus cuniculus, male rabbit, compound 3×10^-5 M, PAF 3×10^-5 M, 37° C., read-out: inhibition rate relative to the maximum transmission (maximum aggregation) of control PRP by PAF
Experimental: Activity to inhibit PAF in platelet aggregation
Using an injection syringe containing a 3.15% solution of citric acid (in a ratio of 1 part per 9 parts of blood) as an anticoagulant, the blood was directly collected from a male rabbit. Then, at room temperature, the blood was centrifuged at 1,000 r.p.m. for 10 minutes to harvest a platelet rich plasm (PRP). This PRP was further centrifuged at 1,400 r.p.m. for 15 minutes to give platelet pellets. The pellets were suspended in Ca^++ -free Tyrode solution (containing 0.25% of gelatin) to give a washed PRP. This washed PRP (250 μl) was stirred at 37° C. for 2 minutes, then 25 μl of a 0.2 to 0.5 mM Ca^++ solution was added, and the mixture was further stirred for 30 seconds. Then, the compound obtained in Example 5 was added to a concentration of 3×10^-5 M. After stirring the mixture for 2 minutes, 3×10^-5 M of PAF was added. The degree of platelet aggregation was determined with a platelet aggregometer (Rika Denki). The activity of the test drug was estimated from the inhibition rate relative to the maximum transmission (maximum aggregation) of control PRP by PAF. The inhibition rate thus found was 70%.

[2] = tested on: PAF-induced platelet aggregation (PRP); test: Activity on inhibiting platelet aggregation (PRP, PAF-induced); format: cell-based; details: male rabbit, PAF 1×10^-8 M, 37° C.
Experimental: Activity on inhibiting platelet aggregation
Using an injection syringe containing 3.15% citric acid (in a ratio of 1 part per 9 parts of blood) as an anticoagulant, the blood was directly collected from a male rabbit. Then, at room temperature, the blood was centrifuged at 800 r.p.m. for 10 minutes to harvest a platelet rich plasma (PRP). The remaining blood was further centrifuged at 3,000 r.p.m. for 10 minutes to separate a platelet poor plasma (PPP) as a supernatant. The PRP was diluted with the PPP to adjust the number of platelets to about 0.5 million (5×10^5) per μl. This PRP (250 μl) was stirred at 37° C. for 2 minutes, and the test compound was added to the PRP. After stirring the mixture for 2 minutes, 1×10^-8 M of PAF was added to the mixture. The degree of platelet aggregation was determined with a platelet aggregometer (Rika Denki). The aggregation inhibitory activity of the test compound was estimated from the inhibition rate relative to the maximum transmission (maximum aggregation) of control PRP by PAF.

Compound	inhibition at 30 µM [1] [%]	Inhibition rate (%) ([2]; test compound 3 × 10^-5 (M))	Inhibition rate (%) ([2]; test compound 3 × 10^-6 (M))
CCCCCCCCCCCCCCCCCCOCC(COP(=O)([O-])OCC[n+]1ccccc1)N1C(=O)c2ccccc2C1=O (centres unmarked) [Example 5, 3-Octadecyloxy-2-phthalimidopropyl 2-pyridinioethyl phosphate]	70		
CCCCCCCCCCCCCCCCCCOCC(COP(=O)([O-])OCC[n+]1ccsc1)N1C(=O)c2ccccc2C1=O (centres unmarked) [Example 6, 3-Octadecyloxy-2-phthalimidopropyl 2-thiazolioethyl phosphate]		100	96
CCCCCCCCCCCCCCCCCCOCC(COP(=O)([O-])OCC[n+]1ccsc1)N1C(=O)CCC1=O (centres unmarked) [Example 12, 3-Octadecyloxy-2-succinimidopropyl 2-thiazolioethyl phosphate]		100	32
